Laboratory results published in PubChem BioAssay AID1495 (Sanford-Burnham Center for Chemical Genomics, 2009).

Biological target: Chaperone protein DnaK (Escherichia coli) (UniProt C3TRK2)
Experiment: DnaK beta-domain binding affinity, SAR follow-up, orthogonal assay for DnaK modulator project, biophysical, isothermal titration calorimetry, full-length DnaK (AID 1495)
Conditions: purified DnaK
[1] = measured here: Kd to DnaK substrate-binding domain
[2] = measured here: substrate peptide Kd, compound-saturated DnaK

SMILES | Kd [1] [µM] | Kd [2] [µM] | Kd (measured here: ATP Kd, compound-saturated DnaK) [µM]
O=C(NCc1cccc2ccccc12)c1cccs1 | 1 | – | –
O=C(Nc1ncc2ccccc2n1)c1cccs1 | 1.5 | – | –
O=C(NCc1ccccc1O)c1cccs1 | – | 1.2 | –
O=C(NCc1ccccc1Br)c1cccs1 | 14.3 | – | –
O=C(Nc1ccc2[nH]ccc2c1)c1cccs1 | 4.9 | 2.2 | –
O=C(NCc1ccccc1F)c1cccs1 | 64.1 | – | –
O=C(c1cccs1)N1CCN(CCO)CC1 | – | 7.9 | –
O=C(NCc1cccc2ccsc12)c1cccs1 | – | – | 2.5

The next lines start with the values.

Kd [1] [µM] | Kd [2] [µM] | Kd (measured here: ATP Kd, compound-saturated DnaK) [µM] | SMILES
13.7 | 0.2 | – | CC(Cc1ccc(F)cc1)NC(=O)c1cccs1 (stereo not given)
25 | – | – | Cc1ccc(CNC(=O)c2ccc([N+](=O)[O-])o2)cc1
– | 0.6 | – | O=C(NCc1ccc(Cl)c(Cl)c1)c1cccs1
47.6 | – | – | Cc1ccc(C(=O)NCc2ccc(F)cc2)o1
19.3 | – | – | Cc1ccc(C(=O)NCc2ccc(Cl)cc2)o1
